Data from PubChem BioAssay (NCI).
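In this assay, cells in 96-well plates receive the compound at five concentrations for 48 hours. Endpoints are linearly interpolated between the surrounding concentrations. Abbreviation: GI50, concentration required for 50% inhibition of growth. TGI marks complete inhibition of growth.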

Key:
Assay in all cases: inhibition of tumour cell growth, NCI panel, 48 h
MDA-MB-435 = tested on: MDA-MB-435
EKVX NSCLC = tested on: EKVX NSCLC
HT29 colon = tested on: HT29 colon
MDA-MB-231 breast = tested on: MDA-MB-231 breast
UO-31 renal = tested on: UO-31 renal
OVCAR-4 ovarian = tested on: OVCAR-4 ovarian
SK-OV-3 ovarian = tested on: SK-OV-3 ovarian
OVCAR-8 ovarian = tested on: OVCAR-8 ovarian
RPMI-8226 leukemia = tested on: RPMI-8226 leukemia
HCT-15 colon = tested on: HCT-15 colon

| Structure (SMILES) | TGI (MDA-MB-435) [µM] | TGI (EKVX NSCLC) [µM] | TGI (HT29 colon) [µM] | TGI (MDA-MB-231 breast) [µM] | TGI (UO-31 renal) [µM] | TGI (OVCAR-4 ovarian) [µM] | TGI (SK-OV-3 ovarian) [µM] | TGI (OVCAR-8 ovarian) [µM] | TGI (RPMI-8226 leukemia) [µM] | TGI (HCT-15 colon) [µM] | GI50 (MDA-MB-435) [µM] | GI50 (EKVX NSCLC) [µM] | GI50 (HT29 colon) [µM] | GI50 (MDA-MB-231 breast) [µM] | GI50 (UO-31 renal) [µM] | GI50 (OVCAR-4 ovarian) [µM] | GI50 (SK-OV-3 ovarian) [µM] | GI50 (OVCAR-8 ovarian) [µM] | GI50 (RPMI-8226 leukemia) [µM] | GI50 (HCT-15 colon) [µM] |
| --- | --- | --- | --- | --- | --- | --- | --- | --- | --- | --- | --- | --- | --- | --- | --- | --- | --- | --- | --- | --- |
| C=C1C(=O)C2=CC1CCC(=O)C1(C)CCC(OC(C)=O)C(C)(C)C1CC2O (stereo not given) | 26 | 18.9 | 10.1 | 18 | 5.38 | 10.8 | 23 | 16.5 | > 100 | 2.6 |  |  |  |  |  |  |  |  |  |  |
| COc1ccc(OC)c(/C=C/c2ccnc3ccccc23)c1 | 0.331 | 10.7 | 2.35 | 9.44 | 6.99 | 19.6 | 5.1 | 1.88 | 26.3 | 17.3 |  |  |  |  |  |  |  |  |  |  |
| C/C=C(\C)C(=O)O[C@H]1C=CC(=O)O[C@H]1COC(=O)[C@H](C)O | 22.4 | 28.9 | 17.4 | 28.3 | 25.5 | 21.5 | 46.4 | 28.3 | 14.5 | 16.2 | 5.74 | 14.5 | 3.76 | 12.1 | 9.79 | 5.97 | 17.6 | 12.2 | 3.2 | 3.74 |
| Cc1ccsc1-c1ccc2c(c1)COC2(CCCN(C)C)c1ccc(F)cc1 (stereo not given) | 3.24 | 18.5 | 8.45 | 6 | 6.26 | 13 | 21.9 | 13.2 | 4.88 | 10.9 | 1.68 | 4.64 | 2.29 | 1.84 | 1.7 | 3.27 | 8.16 | 3.28 | 2.12 | 3.09 |
| O=S(=O)(NCCCNc1cc(-c2cn(-c3ccccc3)nc2-c2cccc(O)c2)ccn1)c1ccc(Br)cc1 | 3.53 | 66.4 | 2.35 | 4.25 | 8.95 | 8.65 | 9.3 | 9.29 | 4.68 | 3.51 | 1.7 | 2.29 | 0.639 | 1.6 | 2.17 | 1.86 | 2.76 | 2.45 | 1.45 | 1.32 |
| CN(C)CCOc1ccccc1NC1=C(Cl)C(=O)C(Nc2ccccc2OCCN(C)C)=C(Cl)C1=O | > 40.6 | 19.1 | 3.5 | 6.61 | 2.22 | 0.896 | > 83.1 | 20.7 | > 100 | 2.61 | 9.42 | 5.33 | 0.83 | 2.21 | 0.735 | 0.473 | > 47.7 | 4.16 | > 100 | 0.845 |
| CC(=O)OCCCC#CC#Cc1cccc(=O)o1 | 31.4 | 36.4 | 71.5 | 29 | > 100 | 56.1 | > 100 | 86.4 | 20.3 | 25.7 | 16 | 16.9 | 24.9 | 13.7 | 3.52 | 24.9 | 33.8 | 29.4 | 4.19 | 11.7 |
| CN(C)C=Nc1c(I)cc(I)c(CCC(=O)O)c1I | > 100 | > 100 | > 100 | > 100 | > 100 | > 100 | > 100 | > 100 | > 100 | > 100 | > 100 | > 100 | > 100 | > 100 | > 100 | > 100 | > 100 | > 100 | > 100 | > 100 |
| O=C1c2cc(F)ccc2-c2c1c1ccc([N+](=O)[O-])cc1c(=O)n2CCCBr | > 100 | > 100 | > 100 | > 100 | > 100 | > 100 | > 100 | > 100 | 51.8 | > 100 | 37.5 | > 100 | 19.6 | > 100 | 13.9 | > 100 | 20.2 | 12.2 | 5.98 | 56.8 |
| CN1C(=O)C2(c3ccccc31)C1CC3C(CO1)C1C2C3(CO)CN1C#N (stereo not given) | > 100 | > 100 | > 100 | > 100 | > 100 | > 100 | > 100 | > 100 | > 100 | > 100 |  |  |  |  |  |  |  |  |  |  |
